Laboratory results published in patent publication US7396850B2, “Pyrazole derivative as PPAR modulator” (Eli Lilly and Company, priority 2003, dated 2008).
pEC50: −log10 of the molar value.

How the values were obtained:
[1] = system: obese, non-diabetic rhesus monkeys; assay: Dyslipidemic rhesus monkey model, oral dose-escalation study for 28 days; format: in vivo
Experimental: The compound of Formula 1 was examined in a dyslipidemic rhesus monkey model. […] HDL cholesterol increased by more than 40% in the 3.0 mg/kg b.i.d. dose group. LDL cholesterol decreased by approximately 25% in the 9.0 mg/kg b.i.d dose group, and a dose-related effect on triglycerides yielded a maximum 53% reduction in the 9.0 mg/k.g b.i.d dose group.

PPARα = target: T1, PPARα (Homo sapiens, UniProt Q07869); assay: PPAR cotransfection (transactivation) assay in CV-1 cells, GAL4 chimeric system; format: cell-based
T1 sequence (Q07869 201-468 limits assumed): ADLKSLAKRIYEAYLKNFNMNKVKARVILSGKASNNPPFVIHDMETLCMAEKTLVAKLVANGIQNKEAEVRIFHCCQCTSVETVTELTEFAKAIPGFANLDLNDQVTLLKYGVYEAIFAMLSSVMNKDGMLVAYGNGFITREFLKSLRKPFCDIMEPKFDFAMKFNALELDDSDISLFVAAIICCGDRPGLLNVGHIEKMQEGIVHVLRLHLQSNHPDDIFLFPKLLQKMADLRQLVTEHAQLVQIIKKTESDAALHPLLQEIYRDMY
Experimental: (§1) DNA-dependent binding is carried out using SPA technology with PPAR receptors. Tritium-labeled PPARα agonists are used as radioligands for generating displacement curves and IC50 values with compounds of the invention. Cotransfection assays are carried out in CV-1 cells. The reporter plasmid contained an acylCoA oxidase (AOX) PPRE and TK promoter upstream of the luciferase reporter cDNA. Appropriate PPARs are constitutively expressed using plasmids containing the CMV promoter. For PPARα, interference by endogenous PPARγ in CV-1 cells is an issue. In order to eliminate such interference, a GAL4 chimeric system is used in which the DNA binding domain of the transfected PPAR is replaced by that of GAL4, and the GAL4 response element is utilized in place of the AOX PPRE. Cotransfection efficacy is determined relative to PPAR agonist reference molecules. Efficacies are determined by computer fit to a concentration-response curve, or in some cases at a single high concentration of agonist (10 μM).
(§2) These studies are carried out to evaluate the ability of compounds of the invention to bind to and/or activate various nuclear transcription factors, particularly huPPARδ (“hu” indicates “human”). These studies provide in vitro data concerning efficacy and selectivity of compounds of the invention.

PPARγ = target: T2, PPARγ (Homo sapiens, UniProt P37231); assay: PPAR cotransfection (transactivation) assay in CV-1 cells; format: cell-based
T2 construct: expressed in transfected cells; host or cells: CV-1 cells
T2 sequence (P37231 1-505): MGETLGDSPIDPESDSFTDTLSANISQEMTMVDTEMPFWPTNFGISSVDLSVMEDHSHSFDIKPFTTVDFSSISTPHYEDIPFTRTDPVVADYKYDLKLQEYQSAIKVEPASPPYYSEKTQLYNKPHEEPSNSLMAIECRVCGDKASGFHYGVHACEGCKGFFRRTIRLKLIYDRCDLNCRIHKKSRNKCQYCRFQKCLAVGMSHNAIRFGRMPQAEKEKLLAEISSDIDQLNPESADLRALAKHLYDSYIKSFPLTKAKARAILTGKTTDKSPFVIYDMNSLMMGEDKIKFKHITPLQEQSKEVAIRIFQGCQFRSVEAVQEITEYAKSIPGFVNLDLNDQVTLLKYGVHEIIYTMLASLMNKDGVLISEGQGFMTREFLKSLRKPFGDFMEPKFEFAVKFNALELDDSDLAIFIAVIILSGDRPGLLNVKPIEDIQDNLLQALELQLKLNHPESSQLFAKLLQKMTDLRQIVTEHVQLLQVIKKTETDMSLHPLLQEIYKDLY
Experimental: as §1, §2

PPARδ = target: T3, PPARδ (Homo sapiens, UniProt Q03181); assay: as above; format: cell-based
T3 construct: expressed in transfected cells; host or cells: CV-1 cells
T3 sequence (Q03181 1-441): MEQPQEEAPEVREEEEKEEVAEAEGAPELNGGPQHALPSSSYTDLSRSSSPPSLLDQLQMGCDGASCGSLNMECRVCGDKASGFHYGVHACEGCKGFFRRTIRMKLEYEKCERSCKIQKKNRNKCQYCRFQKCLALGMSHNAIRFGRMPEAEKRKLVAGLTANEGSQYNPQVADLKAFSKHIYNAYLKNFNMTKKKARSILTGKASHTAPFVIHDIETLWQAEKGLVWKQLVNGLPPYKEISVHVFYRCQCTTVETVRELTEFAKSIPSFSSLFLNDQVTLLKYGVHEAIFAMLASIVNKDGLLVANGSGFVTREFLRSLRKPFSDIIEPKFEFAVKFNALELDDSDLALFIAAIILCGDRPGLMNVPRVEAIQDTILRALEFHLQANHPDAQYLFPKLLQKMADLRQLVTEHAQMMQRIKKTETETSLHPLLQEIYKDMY
Experimental: as §1, §2

`Cc1cc(SCc2cn(-c3ccc(C(F)(F)F)cc3)nc2C)ccc1OCC(=O)O` [Formula 1, {2-Methyl-4-[3-methyl-1-(4-trifluoromethyl-phenyl)-1H-pyrazol-4-ylmethylsulfanyl]-phenoxy}-acetic acid] was tested, and the C-reactive protein levels ([1]; compared to pretreatment levels) was “reduced compared to pretreatment levels”, the HDL-c change ([1]; oral dose-escalation, 28 days, each dose) was “elevation of HDL-c with each dose” and the HDL cholesterol increase ([1]; oral, 3.0 mg/kg b.i.d. dose group) was “more than 40%”. The LDL cholesterol decrease ([1]; oral, 9.0 mg/kg b.i.d. dose group) was “approximately 25%”, the triglycerides maximum reduction ([1]; oral, 9.0 mg/kg b.i.d. dose group, dose-related effect) was 53% and the pEC50 (PPARα) was 5.74. For the same compound, the pEC50 (PPARγ) was 5.59 and the pEC50 (PPARδ) was 7.70.
